Reference: PMC9788040, “Molecular Diversity of Linear Peptides Revealed by Transcriptomic Analysis of the Venom Gland of the Spider Lycosa poonaensis” (Toxins, 2022)
Where no end group is shown, it is not given here.

Columns and labels:
[1] = tested on: Escherichia coli NBRC 3972; experiment: Antibacterial activity, liquid growth inhibition assay; format: cell-based; conditions: E. coli NBRC 3972, LB medium, overnight 37 °C, A595; MIC as interval [a]–[b]; at least three experiments in duplicate
Experimental: (§1) Antibacterial activity was measured using the Gram-negative bacteria Escherichia coli NBRC 3972 and the Gram-positive bacteria Staphylococcus aureus NBRC 13276 and Bacillus subtilis NBRC 3009 (NITE Biological Resource Center, Chiba, Japan), using a liquid growth inhibition assay. Each bacteria strain was grown in a liquid LB medium (1% tryptone, 0.5% yeast extract, and 1% NaCl). Aliquots of each sample (10 µL) were incubated with 90 µL of a suspension of a mid-logarithmic phase culture of bacteria in a 96-well plate at a starting absorbance of A595 = 0.001 in the LB medium; the incubation occurred overnight at 37 °C with continuous shaking. Growth inhibition was monitored by measuring the absorbance at 595 nm using a Benchmark microplate reader (Bio-Rad, Hercules, CA, USA). Experiments were repeated at least three times, each time in duplicate. Minimal inhibitory concentrations (MICs) are expressed as the interval of concentrations [a]–[b], where [a] is the highest concentration at which bacteria still grow and [b] is the lowest concentration causing growth inhibition.

[2] = tested on: Staphylococcus aureus NBRC 13276; experiment: as above; format: cell-based; conditions: S. aureus NBRC 13276, LB medium, overnight 37 °C, A595; MIC as interval [a]–[b]; at least three experiments in duplicate
Experimental: as §1

[3] = tested on: Bacillus subtilis NBRC 3009; experiment: as above; format: cell-based; conditions: B. subtilis NBRC 3009, LB medium, overnight 37 °C, A595; MIC as interval [a]–[b]; at least three experiments in duplicate
Experimental: as §1

[4] = tested on: sheep red blood cells (sRBCs); experiment: Hemolytic activity; format: cell-based; conditions: sheep RBC 4% (v/v) in PBS pH 7.2, 1 h 37 °C, absorbance 450 nm; 3 experiments in triplicate; read-out: Hemolysis EC50
Experimental: Fresh sheep red blood cells (sRBCs) were washed three times with PBS (35 mM phosphate buffer and 150 mM NaCl, pH 7.2) through centrifugation at 2000× g for 5 min and resuspended in PBS. Specifically, aliquots of each sample in PBS (50 μL) were added to 50 μL of sRBC suspension [4% (v/v) in the final] in a microtube and incubated for 1 h at 37 °C; then, the samples were centrifuged at 2000× g for 5 min. The supernatant was transferred to a 96-well plate to monitor hemoglobin release, which was done by measuring the absorbance of the supernatant at 450 nm using a Benchmark microplate reader. PBS and 0.1% Triton X-100 were used as the negative and positive controls, respectively. The experiments were repeated 3 times, each time in triplicate. In the equation to calculate the hemolysis rate, AP refers to peptide sample absorbance, AT refers to 0.1% Triton X-100 positive control absorbance, and A0 refers to PBS sample negative control absorbance. Hemolysis rate (%)=Ap−A0/AT−A0×100

[5] = Secondary structure estimation by CD spectroscopy (DichroWeb); format: physicochemical; conditions: 25 °C, DichroWeb CDSSTR, reference dataset 4
Experimental: CD spectra were recorded on a J-820 spectropolarimeter (Jasco, Tokyo, Japan). The spectra were measured between 190–260 nm (in 0.2-nm steps) at 25 °C with a 1-mm-pathlength cell. Samples were dissolved in a 0.2 M phosphate buffer (pH 7.0) or 50% TFE in a 0.2 M phosphate buffer (pH 7.0) at a concentration of 10 µM. Five scans were averaged for each sample. The percentages of secondary structures were estimated from the spectra using the DichroWeb server. The helical wheel projection was performed using the online software HeliQuest (https://heliquest.ipmc.cnrs.fr, accessed on 14 July 2022).

[6] = tested on: crickets (Acheta domesticus); experiment: Insect toxicity (paralysis after injection); format: in vivo; conditions: injection into abdominal region, paralysis counted 30 min after injection, 10 insects per measurement, parentheses = 95% confidence intervals
Experimental: Insect toxicity was tested on crickets (Acheta domesticus, 50 ± 5 mg body weight) by injecting 1–2 µL of each sample dissolved in distilled water into their abdominal region. Distilled water was injected as a control. For each measurement, 10 insects were used, and the number of paralyzed insects was counted 30 min after injection. The doses required to induce paralysis in half of the test animals (PD50) were determined using the statistical software PRISM (GraphPad Software, La Jolla, CA, USA).

[7] = solvent I: 0.2 M phosphate buffer pH 7.0, 10 µM
[8] = solvent II: 50% TFE in 0.2 M phosphate buffer pH 7.0, 10 µM

| Substance | Antibacterial Activity MIC, E. coli [1] | Antibacterial Activity MIC, S. aureus [2] | Antibacterial Activity MIC, B. subtilis [3] | EC50 [4] | Percentage of Secondary Structure, Turns [5, 7] | Percentage of Secondary Structure, Unordered [5, 7] | Percentage of Secondary Structure, α-Helix [5, 7] | Percentage of Secondary Structure, β-Sheet [5, 7] | Percentage of Secondary Structure, Turns [5, 8] | Percentage of Secondary Structure, Unordered [5, 8] | Percentage of Secondary Structure, α-Helix [5, 8] | Percentage of Secondary Structure, β-Sheet [5, 8] | Insect Toxicity PD50 [6] |
| --- | --- | --- | --- | --- | --- | --- | --- | --- | --- | --- | --- | --- | --- |
| IWLTALKFIGKNLGKHFAKQQLSKL-NH2 [M-lycotoxin-Lp3a] | 0.8 to 1.6 µM | 0.4 to 0.8 µM | 0.8 to 1.6 µM | > 100 µM |  |  |  |  |  |  |  |  |  |
| VIWLPALKFLASHIAMEQLSKL-NH2 [M-lycotoxin-Lp1b] | 50 to 100 µM | 3.1 to 6.2 µM | 6.2 to 12.5 µM | > 100 µM |  |  |  |  |  |  |  |  |  |
| MVWLLPLKFLASHVAMEQLSKLGSKIATKL-NH2 [M-lycotoxin-Lp1a] | 6.2 to 12.5 µM | 12.5 to 25 µM | 12.5 to 25 µM | > 100 µM |  |  |  |  |  |  |  |  |  |
| KIKWFKAMKSIAKYVAKKQLKKHLGGEN [M-lycotoxin-Lp4] |  |  |  |  | 26% | 33% | 8% | 33% | 13% | 23% | 51% | 11% | 10 (5.8–17.1) µg/g Weight |
| AGLGKIGALIKKAYAIYKAKAA-NH2 [M-lycotoxin-Lp5b] | 1.25 to 2.5 µM | 50 to 100 µM | 1.25 to 2.5 µM | > 100 µM | 25% | 34% | 7% | 33% | 11% | 23% | 51% | 14% | 44 (12.2–160) µg/g Weight |
| AGLGKIGAFIKKAYAIYKAKAA-NH2 [M-lycotoxin-Lp5a] | 1.25 to 2.5 µM | 50 to 100 µM | 1.25 to 2.5 µM | > 100 µM | 28% | 33% | 15% | 23% | 10% | 18% | 55% | 17% | 50 (18.3–138) µg/g Weight |
| SKWKAFLAKMKEIASEAL-NH2 [M-lycotoxin-Lp6] | 5 to 12.5 µM | >100 µM | 5 to 12.5 µM | > 100 µM |  |  |  |  |  |  |  |  |  |
